Results published in paper PMC4591261, “Design, Synthesis and Evaluation of 2,5-Diketopiperazines as Inhibitors of the MDM2-p53 Interaction” (PLoS ONE, 2015).
Values joined by “and” are separate entries in the source; they are usually repeats but may differ in a detail not shown here. Equal entries are not always repeated.

Legend:
GST-MDM2 (1 – 188) = GST-MDM2 (1 – 188) (Homo sapiens, UniProt Q00987); assay: Fluorescence polarisation (FP) assay, displacement of Texas Red labeled wild-type p53 peptide from MDM2; format: binding; settings: for activity in the FP-assay (in words): tested concentrations up to 100 μM; for IC50: 1 μM GST-MDM2 (1-188), 15 nM Texas Red labeled wild-type p53 peptide, 1 h at r.t., 95% CI
Chain of GST-MDM2 (1 – 188) (Q00987 1-188): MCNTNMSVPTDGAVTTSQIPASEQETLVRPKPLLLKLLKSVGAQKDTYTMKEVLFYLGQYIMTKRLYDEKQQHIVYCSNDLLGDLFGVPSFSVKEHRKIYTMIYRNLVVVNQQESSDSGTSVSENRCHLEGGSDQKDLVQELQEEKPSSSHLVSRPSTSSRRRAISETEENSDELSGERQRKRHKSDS
Description: To evaluate the 2,5-DKPs as potential MDM2-p53 inhibitors, the same FP-assay was used as for the type III inhibitors.
The FP assay was performed in black 384-well microtiter plates at a final volume of 20 μL per well. […] Two to seven independent experiments of normalized data were combined into a data set, and then fit using a non-linear regression in GraphPad Prism with the formula log(inhibitor) vs. response – Variable slope (four parameters). Additionally the residuals of the curve fit were plotted to determine the fit of the theoretical curve. IC50 and 95% confidence intervals (CI) were determined from these graphs.

MDM2 [1] = target: T1, MDM2 (Homo sapiens, UniProt Q00987); assay: WaterLOGSY NMR binding experiment; settings: compound 200 µM, MDM2 protein 5 µM, 298 K
T1 sequence (Q00987 whole entry): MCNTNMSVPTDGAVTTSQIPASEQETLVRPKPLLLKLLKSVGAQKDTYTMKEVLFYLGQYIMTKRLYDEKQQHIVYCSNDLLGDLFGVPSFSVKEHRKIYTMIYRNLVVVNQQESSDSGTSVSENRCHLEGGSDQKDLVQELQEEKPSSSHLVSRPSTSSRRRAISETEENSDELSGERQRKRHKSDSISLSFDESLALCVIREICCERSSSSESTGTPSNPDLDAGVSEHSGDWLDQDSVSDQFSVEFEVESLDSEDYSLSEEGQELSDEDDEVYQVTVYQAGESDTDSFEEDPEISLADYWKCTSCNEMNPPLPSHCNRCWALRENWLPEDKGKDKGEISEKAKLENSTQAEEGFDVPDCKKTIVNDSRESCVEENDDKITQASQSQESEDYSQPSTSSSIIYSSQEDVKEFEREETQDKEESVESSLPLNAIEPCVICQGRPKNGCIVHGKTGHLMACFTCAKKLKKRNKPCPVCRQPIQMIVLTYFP
Description: All NMR experiments were performed at 298 K (25 °C) using a Bruker Avance 600 MHz spectrometer equipped with TCI cryogenic gradient probe. Compounds (20 mM stock solution in DMSO-D6) were added to buffer (25mM HEPES, pH7.2, 150 mM NaCl, 2mM TCEP) or buffer containing MDM2 protein (5 µM) to give final compound concentration of 200 µM. One-dimensional (1D) ^1H- and WaterLOGSY (water-ligand observed via gradient spectroscopy)^8 NMR spectra were recorded for compounds, protein, and compounds plus protein, respectively. NMR spectra were processed using Bruker Topspin software.

MDM2 [2] = target: T1, MDM2; assay: Surface plasmon resonance (SPR) binding to biotinylated MDM2; settings: 1:1 interaction model, 20 °C; for Rmax (RU): SPR
Description: To confirm binding to the target, surface plasmon resonance (SPR) was used to study interactions of 52RR and 52RS with MDM2 [41, 42].
MDM2 was minimally biotinylated by reaction with EZ-Link Sulfo-NHS-LC-LC-Biotin (Thermo Scientific). The biotin reagent was added to the protein at a 0.5:1 molar ratio, and the reaction was incubated on ice for 3-4 hours. Unconjugated biotin was removed by processing the samples through two Zeba Spin Desalting Columns (Thermo Scientific) that had been equilibrated with storage buffer (20 mM Bis-Tris pH 6.5, 200 mM NaCl, 20 mM dithiothreitol, 20% glycerol). Bovine serum albumin (BSA) was added to the reaction at a final concentration of 0.1 mg/mL immediately prior to processing through the spin columns to improve recovery.^2 The biotinylated protein was aliquotted, flash-frozen and stored at -80° C for use in subsequent binding experiments.
SPR experiments were conducted at 20 °C using a SensiQ Pioneer optical biosensor (SensiQ Technologies). Neutravidin (Thermo Scientific) was covalently immobilized on a polysaccharide hydrogel-coated gold surface (COOH5 chip; SensiQ Technologies) using routine amine coupling chemistry in immobilization buffer (10 mM HEPES pH 7.4, 150 mM NaCl, 0.005% Tween20). Carboxyl groups on the hydrogel were activated with N-ethyl-N´-(3-dimethylaminopropyl) carbodiimide (EDC) and N-hydroxysuccinimide (NHS), and neutravidin was injected in 10 mM sodium acetate pH 5.0 until immobilization levels of ~3000-3400 RU were achieved. Remaining active sites were blocked by reaction with ethanolamine. The instrument was primed with binding buffer (20 mM Tris pH 8.0, 100 mM NaCl, 5 mM dithiothreitol, 0.005% Tween20, 5% glycerol, 5% DMSO), and biotinylated MDM2 was injected until ~1070 RU of protein was captured. Unoccupied biotin-binding sites of neutravidin on both the reference and protein surfaces were blocked with amine-PEG2-biotin (Thermo Scientific) to minimize potential non-specific binding by the compounds.^3
The data were processed, double-referenced, solvent corrected and analyzed^4 using the software package Qdat (version 2.5.5.12 , BioLogic Software). The equilibrium dissociation constants (KD) were determined by fitting the data to a 1:1 (Langmuir) interaction model.

IC50 (GST-MDM2 (1 – 188))	binding to MDM2 by WaterLOGSY (in words) (MDM2 [1])	Rmax (RU) (MDM2 [2])	SMILES	activity in the FP-assay (in words) (GST-MDM2 (1 – 188))	ka (M^-1s^-1) (MDM2 [2]; SPR kinetic analysis)	kd (s^-1) (MDM2 [2]; SPR kinetic analysis)
–	–	–	CC(C)(C)OC(=O)CN1C(=O)[C@@H](c2ccc(Cl)cc2)N(c2ccc(Cl)cc2)C(=O)[C@H]1Cc1ccccc1 [44RR, (3R,6R)-3-Benzyl-1,6-(di-4-chlorophenyl)-4-(tert-butoxy-carbonyl-methyl)-piperazine-2,5-dione]	inactive	–	–
–	–	–	CC(C)(C)OC(=O)CN1C(=O)[C@H](c2ccc(Cl)cc2)N(c2ccc(Cl)cc2)C(=O)[C@H]1Cc1ccccc1 [44RS, (3R,6S)-3-Benzyl-1,6-(di-4-chlorophenyl)-4-(tert-butoxy-carbonyl-methyl)-piperazine-2,5-dione]	inactive	–	–
31.4 µM and 31 µM	confirmed binding	16.6 (± 0.2) RU	O=C(O)CN1C(=O)[C@@H](c2ccc(Cl)cc2)N(c2ccc(Cl)cc2)C(=O)[C@H]1Cc1ccccc1 [52RR, (3R,6R)-3-Benzyl-1,6-(di-4-chlorophenyl)-4-(carboxy-methyl)-piperazine-2,5-dione]	–	–	–
28 µM	confirmed binding	16.8 (± 0.2) RU	O=C(O)CN1C(=O)[C@H](c2ccc(Cl)cc2)N(c2ccc(Cl)cc2)C(=O)[C@H]1Cc1ccccc1 [52RS, (3R,6S)-3-Benzyl-1,6-(di-4-chlorophenyl)-4-(carboxy-methyl)-piperazine-2,5-dione]	–	–	–

SMILES	IC50 (GST-MDM2 (1 – 188))	binding to MDM2 by WaterLOGSY (in words) (MDM2 [1])	Rmax (RU) (MDM2 [2])	activity in the FP-assay (in words) (GST-MDM2 (1 – 188))	ka (M^-1s^-1) (MDM2 [2]; SPR kinetic analysis)	kd (s^-1) (MDM2 [2]; SPR kinetic analysis)
COc1ccc(C2=N[C@@H](c3ccc(Cl)cc3)[C@@H](c3ccc(Cl)cc3)N2C(=O)N2CCNC(=O)C2)c(OC(C)C)c1 [Nutlin-3a]	–	–	28.4 (± 0.1) RU	–	9.10 (± 0.01) x 10^5 M^-1s^-1	2.80 (± 0.01) x 10^-2 s^-1
